Source: US20260240878A1, “PTP1B/TC-PTP DUAL INHIBITORS AND PROTEIN DEGRADERS” (Purdue Research Foundation, priority 2023, published 2026)
Read-outs that look alike come from different tables or passages of the source. Where a SMILES comes first, the peptide text is derived from it. [ ]: non-standard residue; d: D form. The star is where a group is joined. F2Pmp = N[C@@H](Cc1ccc(C(F)(F)P(=O)(O)O)cc1)C(=O)O; Phenylacetyl(4-OH,3-OMe) = COc1cc(CC(=O)*)ccc1O; Benzoyl(3-Br,4-Me) = Cc1ccc(C(=O)*)cc1Br; X1 = Cc1ncsc1-c1ccc([C@H](C)N*)cc1; Hyp = O=C(O)[C@@H]1C[C@@H](O)CN1; Tle = CC(C)(C)[C@H](N)C(=O)O; PEG1 = NCCOCCC(=O)O

Tests used:
[1] = target: T1, PTP1B (Homo sapiens, UniProt P18031); test: FP-based library screening (fluorescence polarization displacement); assay type: binding
T1 sequence (P18031 1-435): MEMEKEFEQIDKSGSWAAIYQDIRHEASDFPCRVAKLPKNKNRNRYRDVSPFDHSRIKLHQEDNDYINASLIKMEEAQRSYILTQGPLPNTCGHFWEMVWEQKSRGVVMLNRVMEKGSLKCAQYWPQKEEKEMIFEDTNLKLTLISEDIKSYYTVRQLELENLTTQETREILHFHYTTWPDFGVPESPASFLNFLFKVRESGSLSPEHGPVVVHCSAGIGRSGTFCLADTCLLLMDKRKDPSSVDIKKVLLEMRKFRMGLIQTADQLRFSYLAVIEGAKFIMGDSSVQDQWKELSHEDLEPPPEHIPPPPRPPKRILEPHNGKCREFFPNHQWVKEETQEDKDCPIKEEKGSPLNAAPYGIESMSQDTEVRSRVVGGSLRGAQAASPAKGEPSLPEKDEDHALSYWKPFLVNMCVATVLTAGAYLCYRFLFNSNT
Description: (§1) The library screening assay was carried out on a Tecan Genesis workstation with a 96-channel tip block with fixed tips. Before the screening, the library compounds were diluted from the DMSO stock solution into 3,3-dimethylglutarate buffer (50 mM 3,3-dimethylglutarate buffer, pH 7.0, containing 1 mM EDTA with an ionic strength of 0.15 M adjusted by addition of NaCl), resulting in a set of six daughter plates with an ~75 nM concentration of each compound in each well. In the first screen, PTP1B or TCPTP (2 μM in 50 mM 3,3-dimethylglutarate buffer, 50 μL, pH 7.0, containing 1 mM EDTA with an ionic strength of 0.15 M adjusted by addition of NaCl) was dispensed into each well of a 384-well plate, and then 2 μL of the fluorescein-tagged library compounds were transferred from four 96-well intermediate plates to the 384-well plate (final compound concentration ~3 nM). The fluorescence polarization values (A1) were recorded on an Envision 2021 Multilabel Microplate Reader (Perkin-Elmer). In the second screen, 50 μL of a mixture of 2 μM PTP1B or TCPTP and 500 μM Fmoc-F2Pmp-OH (as a competitive ligand) in 3,3-dimethylglutarate buffer (50 mM 3,3-dimethylglutarate buffer, pH 7.0, containing 1 mM EDTA with an ionic strength of 0.15 M adjusted by addition of NaCl) were dispensed into each well of another 384-well plate, followed by the addition of 2 μL of the fluorescein tagged library compounds (75 nM in 3,3-dimethylglutarate buffer, pH 7.0, containing 1 mM EDTA with an ionic strength of 0.15 M adjusted by addition of NaCl). The fluorescence polarization values (A2) were again measured. A displacement percentage was calculated for each library compound as (A1−A2)/(A1−A0)×100%, where A1 and A2 are the fluorescence anisotropy values of each sample as described, and A0 is the fluorescence anisotropy of free library compounds in 3,3-dimethylglutarate buffer. To simplify the calculation, A0 was set to 30. The binding affinity ranking of each compound was determined on the displacement percentage: the […] the displacement percentage, the higher the binding affinity.
(§2) The library was screened using the same protocol as the library 1, except that 0.5 μM PTP1BB/TC-PTP and 1.5 mM competitive ligand Fmoc-F2Pmp-OH were used.
(§3) The library was screened using the same protocol as the library 1, except that 0.5 μM PTP1B/TC-PTP and 5 μM ((4-((S)-2-((S)-2-acetamido-3-phenylpropanamido)-3-(((S)-1-amino-6-(3-bromo-4-methylbenzamido)-1-oxohexan-2-yl)amino)-3-oxopropyl)phenyl)difluoromethyl)phosphonic acid (as a competitor) were used.

[2] = target: T2, TC-PTP (Homo sapiens, UniProt P17706); test: as above; assay type: binding
T2 sequence (P17706 1-415): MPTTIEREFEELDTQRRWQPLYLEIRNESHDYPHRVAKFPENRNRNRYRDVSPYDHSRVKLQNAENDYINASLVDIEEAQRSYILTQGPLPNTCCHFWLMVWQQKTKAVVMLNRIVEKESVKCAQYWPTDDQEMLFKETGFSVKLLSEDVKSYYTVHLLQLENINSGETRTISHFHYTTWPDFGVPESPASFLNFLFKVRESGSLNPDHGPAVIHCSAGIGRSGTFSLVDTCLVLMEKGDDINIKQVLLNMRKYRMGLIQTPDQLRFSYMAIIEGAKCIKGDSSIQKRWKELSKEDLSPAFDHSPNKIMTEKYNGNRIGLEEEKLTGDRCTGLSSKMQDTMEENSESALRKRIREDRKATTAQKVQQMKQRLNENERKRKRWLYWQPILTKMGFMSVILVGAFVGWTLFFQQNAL
Description: as §1, §2, §3

[3] = target: T1, PTP1B; test: PTP activity assay with pNPP substrate (IC50, Ki, mode of inhibition); assay type: biochemical
Description: (§4) PTP activity was assayed using p-nitrophenyl phosphate (pNPP) as a substrate in DMG buffer (50 mM DMG. pH 7.0, 1 mM EDTA, 150 mM NaCl, 2 mM DTT, 0.1 mg/mL BSA) at 25° C. The assays were performed in 96-well plates. Normally, to determine the IC50 values, the reaction was initiated by the addition of enzyme (for PTP1B and TCPTP, the final concentration was 0.4 nM, for other PTPs, the final concentration was 10 nM) to a reaction mixture (0.2 mL) containing 2 mM (Km for the substrate) pNPP with various concentrations of inhibitors (see FIG. 1). The reaction rate was measured using a SpectraMax Plus 384 Microplate Spectrophotometer (Molecular Devices). Data were fitted using SigmaPlot Enzyme Kinetics Module (Systat Software, Inc.). To determine the mode of inhibition, the reactions were initiated by the addition of enzyme (final concentration for TC-PTP and PTP1B was 0.4 nM) to the reaction mixtures (0.2 mL) containing various concentrations of pNPP with different concentrations of the inhibitor. Data were fitted using SigmaPlot Enzyme Kinetics Module (Systat Software. Inc.).

[4] = target: T2, TC-PTP; test: as above; assay type: biochemical
Description: as §4

[5] = target: T1, PTP1B; test: Degradation assay in HEK293 cells (immunoblotting); assay type: cell-based; set-up: endogenous in cells; host or cells: HEK293; details: 0.2 μM degrader, 16 hours
Description: (§5) HEK293. MIAPaCa-2, HepG2, U2OS, H116, MEF, B16F10, and MC38 cells, were grown in DMEM, while Jurkat and H358 cells were grown in RPMI 1640 supplemented with 10% fetal bovine serum, penicillin (50 units/mL), and streptomycin (50 μg/mL) in a 37° C. incubator containing 5% CO2. 20 ng/ml human (Biolegend #713906) or mouse (Biolegend #714006) Interferon-γ were used for JAK/STAT pathway stimulation.
(§6) Tissues or cultured cells were lysed with ice-cold lysis buffer (50 mM Tris (pH 8.0, 150 mM NaCl, 10% Glycerol, 1% Triton-X-100) supplied with phosphatase inhibitor (Bimake) and protease inhibitor mixture (Roche Applied Science). Equal amounts of protein were resolved by SDS-PAGE, transferred to nitrocellulose membrane, and subjected to immunoblotting. Antibodies used in this study include anti-following proteins: pSTAT1^Tyr701 (Cell Signaling Technology #9167, 1:3000), GAPDH (Cell Signaling Technology #97166, 1:5000), pJAK1^Tyr1034/1035 (Cell Signaling Technology #74129, 1:1000), pJAK2^Tyr1007/1008 (Cell Signaling Technology #3776, 1:1000), TC-PTP (Abcam #ab180764, 1:3000). PTP1B (Abcam #ab244207, 1:1500).
(§7) Degradation assay was conducted in HEK293 cells with 1 μM degrader and 24 hours incubation.
(§8) The degradation assay was conducted in HEK293 cells with 0.2 μM degrader and 16 hours incubation.

[6] = target: T2, TC-PTP; test: Degradation assay in HEK293 cells (immunoblotting); assay type: cell-based; set-up: endogenous in cells; host or cells: HEK293; details: 0.2 μM degrader, 16 hours, read-out: % Protein Degradation TC-PTP
Description: as §5, §6, §7, §8

[7] = library 3, 0.5 μM enzyme, 5 μM Example 6 compound as competitor
[8] = library 2, 0.5 μM enzyme, 1.5 mM Fmoc-F2Pmp-OH
[9] = library 1, 2 μM PTP1B, 500 μM Fmoc-F2Pmp-OH competitive ligand, smaller = higher affinity
[10] = library 1, 2 μM TCPTP, 500 μM Fmoc-F2Pmp-OH competitive ligand, smaller = higher affinity

2-(3-fluoro-4- hydroxyphenyl)acetic acid
Displacement %, PTP1B [1, 7]: 72%
Displacement %, TC-PTP [2, 7]: 75%

2-(4-chloro-2- methylphenoxy)acetic acid
Displacement %, PTP1B [1, 8]: 57%
Displacement %, TC-PTP [2, 8]: 55%

3-bromo-4- methylbenzoic acid
Displacement %, PTP1B [1, 9]: 34%
Displacement %, TC-PTP [2, 10]: 39%

COc1cc(CC(=O)N[C@@H](Cc2ccccc2)C(=O)N[C@@H](Cc2ccc(C(F)(F)P(=O)(O)O)cc2)C(=O)N[C@@H](CCCCNC(=O)c2ccc(C)c(Br)c2)C(=O)NCc2ccccc2CCC(=O)N[C@H](C(=O)N2C[C@H](O)C[C@H]2C(=O)NCc2ccc(-c3scnc3C)cc2)C(C)(C)C)ccc1O (stereo in doubt) [Compound 40, ((4-((S)-3-(((S)-6-(3-bromo-4-methylbenzamido)-1-((2-(3-(((S)-1-((2S,4R)-4-hydroxy-2-((4-(4-methylthiazol-5-yl)benzyl)carbamoyl)pyrrolidin-1-yl)-3,3-dimenthyl-1-oxobutan-2-yl)amino)-3-oxopropyl)benzyl)amino)-1-oxohexan-2-yl)amino)-2-((S)-2-(2-(4-hydroxy-3-methoxyphenyl)acetamido)-3-phenylpropanamido)-3-oxopropyl)phenyl)difluoromethyl)phosphonic Acid]
IC50 [3]: 3.8 ± 0.4 nM
IC50 [4]: 2.9 ± 0.5 nM
% Protein Degradation PTP1B [5]: 16%
percent TC-PTP degradation at 0.2 µM [6]: 0%

CN(C)c1ccc(CC(=O)O)cc1 [2-(4-(dimethylamino)phenyl) acetic acid]
Displacement %, PTP1B [1, 7]: 81%
Displacement %, TC-PTP [2, 7]: 79%

O=C(O)Cc1ccc(Br)cc1 [2-(4-bromophenyl)acetic acid]
Displacement %, PTP1B [1, 7]: 77%
Displacement %, TC-PTP [2, 7]: 77%

COc1cc(CC(=O)O)ccc1O [2-(4-hydroxy-3-methoxyphenyl)acetic acid]
Displacement %, PTP1B [1, 7]: 51%
Displacement %, TC-PTP [2, 7]: 54%

O=C(O)Cc1ccc(O)cc1 [2-(4-hydroxyphenyl)acetic acid]
Displacement %, PTP1B [1, 7]: 66%
Displacement %, TC-PTP [2, 7]: 62%

Cc1ccc(CCC(=O)O)cc1 [3-(p-tolyl)propanoic acid]
Displacement %, PTP1B [1, 8]: 47%
Displacement %, TC-PTP [2, 8]: 53%

COc1ccc(C(=O)O)cc1F [3-fluoro-4-methoxybenzoic acid]
Displacement %, PTP1B [1, 9]: 57%
Displacement %, TC-PTP [2, 10]: 54%

COc1cc(C(=O)O)ccc1[N+](=O)[O-] [3-methoxy-4-nitrobenzoic acid]
Displacement %, PTP1B [1, 9]: 41%
Displacement %, TC-PTP [2, 10]: 40%

O=C(O)c1ccsc1 [3-thiophenecarboxylic acid]
Displacement %, PTP1B [1, 9]: 45%
Displacement %, TC-PTP [2, 10]: 51%

O=C(O)c1ccc(F)cc1 [4-fluorobenzoic acid]
Displacement %, PTP1B [1, 9]: 44%
Displacement %, TC-PTP [2, 10]: 46%

CCOC(=O)N[C@@H](Cc1ccccc1)C(=O)O [(ethoxycarbonyl)-L- phenylalanine]
Displacement %, PTP1B [1, 8]: 44%
Displacement %, TC-PTP [2, 8]: 41%

COc1cc(CC(=O)N[C@@H](Cc2ccccc2)C(=O)N[C@@H](Cc2ccc(C(F)(F)P(=O)(O)O)cc2)C(=O)N[C@@H](CCCCNC(=O)c2ccc(C)c(Br)c2)C(=O)NCCOCCC(=O)N[C@H](C(=O)N2C[C@H](O)C[C@H]2C(=O)N[C@@H](C)c2ccc(-c3scnc3C)cc2)C(C)(C)C)ccc1O [Compound 27, ((4-((2S,5S,15S)-5-(4-(3-bromo-4-methylbenzamido)butyl)-15-((2S,4R)-4-hydroxy-2-(((S)-1-(4-(4-methylthiazol-5-yl)phenyl)ethyl)carbamoyl)pyrrolidine-1-carbonyl)-2-((S)-2-(2-(4-hydroxy-3-methoxyphenyl)acetamido)-3-phenylpropanamido)-16,16-dimethyl-3,6,13-trioxo-10-oxa-4,7,14-triazaheptadecyl)phenyl)difluoromethyl)phosphonic Acid] ({Phenylacetyl(4-OH,3-OMe)}-F[F2Pmp]K(Benzoyl(3-Br,4-Me))[PEG1][Tle][Hyp]-X1)
IC50 ([3]; pNPP 2 mM, pH 7.0, 25° C., read-out: IC50, nM PTP1B): 15.5 ± 2.1 nM
IC50 ([4]; pNPP 2 mM, pH 7.0, 25° C., read-out: IC50, nM TC-PTP): 6.7 ± 2 nM
% Protein Degradation PTP1B [5]: 75%
percent TC-PTP degradation at 0.2 µM [6]: 63%

CC(=O)N[C@@H](Cc1ccccc1)C(=O)O [acetyl-L-phenylalanine]
Displacement %, PTP1B [1, 8]: 37%
Displacement %, TC-PTP [2, 8]: 41%

(S)-2-acetamido-3-(4- fluorophenyl)propanoic acid
Displacement %, PTP1B [1, 8]: 45%
Displacement %, TC-PTP [2, 8]: 45%
